The test deals with PnGH1. Put plainly: HPLC quantification of product Fd, Michaelis-Menten fit. It counts as biochemical, Panax notoginseng. To be noted: pH 5.0 (50 mM Tris-HCl), 60 °C, 30 min, 30–8000 µM Rb3.

The term Km denotes the concentration of substrate that gives half-maximal velocity.

The structures appear in SMILES notation.

With `CC(C)=CCC[C@](C)(O[C@@H]1O[C@H](CO[C@@H]2OC[C@@H](O)[C@H](O)[C@H]2O)[C@@H](O)[C@H](O)[C@H]1O)[C@H]1CC[C@]2(C)[C@@H]1[C@H](O)C[C@@H]1[C@@]3(C)CC[C@H](O[C@@H]4O[C@H](CO)[C@@H](O)[C@H](O)[C@H]4O[C@@H]4O[C@H](CO)[C@@H](O)[C@H](O)[C@H]4O)C(C)(C)[C@@H]3CC[C@]12C` [compound 4, Rb3], the Km was found to be 677 ± 38.5 µM.

(Values after publication PMC10796634, “Discovery of plant chemical defence mediated by a two-component system involving β-glucosidase in Panax species” (Nature Communications, 2024).)
